Key:
[1] = biological target: T1, Glycogen Branching Enzyme 1 (GBE1) variant Y329S (Homo sapiens, UniProt Q04446, Y329S); assay: activity of purified enzyme GBE1 Y329S in the presence of PC membranes; assay type: biochemical; conditions: PC membranes with TGM 20 mol %; non-mutated enzyme = 100% (0.76 nmol/min · ng protein)
T1 sequence (Q04446 1-702 Y329S): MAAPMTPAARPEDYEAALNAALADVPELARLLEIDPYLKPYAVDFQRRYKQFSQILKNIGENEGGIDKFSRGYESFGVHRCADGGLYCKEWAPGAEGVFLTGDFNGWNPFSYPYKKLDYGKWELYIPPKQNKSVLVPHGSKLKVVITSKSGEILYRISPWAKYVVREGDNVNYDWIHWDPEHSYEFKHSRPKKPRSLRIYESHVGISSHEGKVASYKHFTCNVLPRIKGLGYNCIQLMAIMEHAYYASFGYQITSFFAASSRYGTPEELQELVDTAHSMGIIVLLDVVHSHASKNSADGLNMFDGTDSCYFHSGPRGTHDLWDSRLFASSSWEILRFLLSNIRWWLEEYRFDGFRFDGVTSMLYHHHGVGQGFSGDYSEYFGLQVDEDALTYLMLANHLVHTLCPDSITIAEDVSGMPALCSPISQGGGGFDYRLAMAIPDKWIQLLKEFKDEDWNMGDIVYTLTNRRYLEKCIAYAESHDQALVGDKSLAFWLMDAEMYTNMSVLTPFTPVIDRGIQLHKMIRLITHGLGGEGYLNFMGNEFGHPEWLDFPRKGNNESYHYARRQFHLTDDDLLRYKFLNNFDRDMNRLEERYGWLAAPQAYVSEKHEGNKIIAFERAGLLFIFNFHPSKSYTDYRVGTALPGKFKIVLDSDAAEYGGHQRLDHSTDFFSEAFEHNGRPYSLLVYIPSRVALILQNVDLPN
Text: It has been possible to observe that the molecules of the present invention are capable of regulating the activity of the Glycogen Branching Enzyme 1 (GBE1) and its joining to membranes (Table 9). Alterations in this enzyme give rise to a neurodegenerative process known as APBD (Kakhlon et al., 2013). It has been described that a modification of tyrosine in position 329 of this enzyme (Y329S) causes a reduction in the activity of GBE1. This gives rise to a lower branching of glycogen, which precipitates forming […] which interfere with cell activity (Kakhlon et al., 2013). This gives rise to problems in the function of certain organs, to motor problems and, in some cases, to cognitive decline. We have been able to verify that the hydroxy-triglycerides of the present invention are capable of regulating the joining of native GBE1 (wild type, wt) and with the variant Y329S to membranes and to increase the activity of the form Y329S, which is very low in normal conditions (Table 9). For this reason, the molecules of the present invention are effective for the prevention and treatment of the polyglucosan bodies disease, APBD.

[2] = system: triglycerides in plasma; assay: plasma triglycerides in SHR rats; assay type: in vivo; conditions: 6 days, 400 mg/kg, p.o.
Text: Metabolic and cardiovascular pathologies are closely related. The overfeeding which characterises our society not only gives rise to problems of obesity and excess weight. It is also linked to the appearance of diabetes, dyslipidaemia, hypertension, strokes, arteriosclerosis, ictus, etc. All of these pathologies increase the risk of premature death and can even cause death. In this sense, certain natural oils show a certain efficacy against this type of pathologies, but their power is limited. In contrast, the molecules of the invention have an important effect against the development of this type of pathologies. To be able to study the effects of the compounds of the invention for the prevention and treatment of metabolic and cardiovascular pathologies, hypertensive rats were used (SHR strain, spontaneously hypertensive rats). These rats present obesity, high blood pressure, dyslipidaemia (hypercholesterolemia and hypertriglyceridemia), diabetes, metabolic syndrome and other related health problems. […] [table]

| SMILES | Activity Y329S [1] | TG, levels of triglycerides in plasma [2] |
| --- | --- | --- |
| CCC=CCC=CCC=CCC=CCC=CCCC(O)C(=O)OCC(COC(=O)C(O)CCC=CCC=CCC=CCC=CCC=CCC)OC(=O)C(O)CCC=CCC=CCC=CCC=CCC=CCC (stereo not shown) [TGM5, 1,2,3-tri(2′-hydroxy-eicosa-5′,8′,11′,14′,17′-pentaenoyl)glycerol] | 16 ± 3% | 56.2 ± 3 mg/dL |
| CCCCCC=CCC=CCCCCCCC(O)C(=O)OCC(COC(=O)C(O)CCCCCCC=CCC=CCCCCC)OC(=O)C(O)CCCCCCC=CCC=CCCCCC (stereo not shown) [TGM2, 1,2,3-tri(2′-hydroxy-octadec-9′,12′-dienoyl)glycerol] | 11 ± 2% | 61.7 ± 3 mg/dL |
| CCC=CCC=CCC=CCC=CCC=CCC=CCC(O)C(=O)OCC(COC(=O)C(O)CC=CCC=CCC=CCC=CCC=CCC=CCC)OC(=O)C(O)CC=CCC=CCC=CCC=CCC=CCC=CCC (stereo not shown) [TGM6, 1,2,3-tri(2′-hydroxy-docosa-4′,7′,10′,13′,16′,19′-hexanoyl)glycerol] | 5 ± 1% | 49.4 ± 4 mg/dL |
| CCC=CCC=CCC=CCCCCCCC(O)C(=O)OCC(COC(=O)C(O)CCCCCCC=CCC=CCC=CCC)OC(=O)C(O)CCCCCCC=CCC=CCC=CCC (stereo not shown) [TGM3A, 1,2,3-tri(2′-hydroxy-octadec-9′,12′,15′-trienoyl)glycerol] | 10 ± 2% | 54.8 ± 4 mg/dL |
| CCCCCCCCC=CCCCCCCC(O)C(=O)OCC(COC(=O)C(O)CCCCCCC=CCCCCCCCC)OC(=O)C(O)CCCCCCC=CCCCCCCCC (stereo not shown) [TGM1, 1,2,3-tri(2′-hydroxy-octadec-9′-enoyl)glycerol] | 7 ± 1% | 51.6 ± 4 mg/dL |
| CCCCCC=CCC=CCC=CCC=CCCC(O)C(=O)OCC(COC(=O)C(O)CCC=CCC=CCC=CCC=CCCCCC)OC(=O)C(O)CCC=CCC=CCC=CCC=CCCCCC (stereo not shown) [TGM4, 1,2,3-tri(2′-hydroxy-eicosa-5′,8′,11′,14′-tetraenoyl)glycerol] | 4 ± 1% | 69.3 ± 3 mg/dL |
| CCCCCC(O)C(=O)OCC(COC(=O)C(O)CCCCC)OC(=O)C(O)CCCCC (stereo not shown) [TGM0, 1,2,3-tri(2′-hydroxyheptanoyl)glycerol] | 20 ± 2% | 69.7 ± 7 mg/dL |
| CCCCCC=CCC=CCC=CCCCC(O)C(=O)OCC(COC(=O)C(O)CCCC=CCC=CCC=CCCCCC)OC(=O)C(O)CCCC=CCC=CCC=CCCCCC (stereo not shown) [TGM3G, 1,2,3-tri(2′-hydroxy-octadec-6′,9′,12′-trienoyl)glycerol] | 9 ± 4% | 64.1 ± 5 mg/dL |
